Patent US20250009844A1, “MATURATION OF MUCOSAL DEFENSE AND GUT/LUNG FUNCTION IN THE PRETERM INFANT” (Novozymes A/S, priority 2017, published 2025)
“Also recorded” adds a separate entry of the source. No end group written: not given here.

What was measured:
SCID mice = experiment: Therapeutic, murine, 14 weeks, CD4+CD25+ T cell transfer induced colitis model (Example 4); type: in vivo
From the text: Treatment regime: 70 female BALB/c mice housed in groups of five per cage were allocated to 7 different treatment groups. Colitis was induced in SCID mice by transplantation of CD4+CD25 Tcells from BALB/c mice. Lymphocytes isolated from spleen and lymph nodes from BALB/c mice were subjected to negative selection of CD4+Tcells. Afterwards, CD4+CD25+cells were positively isolated by binding to the beads from the CD4+Tcell suspensions and the CD4+CD25—were collected from the supernatant. The animals were treated with hBD-2, 0.1 mg/kg s.c. once daily 86consecutive days from day 7 (OD); 1 mg/kg s.c. OD or 3 mg/kg s.c. OD;with mouse anti TNFa 100 μg/mouse s.c. twice weekly (enbrel); with dexamethasone 0.3 mg/kg intraperitoneally OD (dex); with PBS s.c. as vehicle from day 7 and 86 consecutive days (vehicle) or sham treated (sham).
Treatment groups: • 1. 0.1 mg/kg hBD-2, once daily subcutaneously (n=11) • 2. 1 mg/kg hBD-2, once daily subcutaneously (n=11) • 3. 3 mg/kg hBD-2, once daily subcutaneously (n=11) • 4. PBS (hBD-2 vehicle), once daily subcutaneously (n=11) • 5. 0.3 mg/kg Dexamethasone, once daily intraperitoneally (n=11) • 6. 100 μg/mouse soluble human 75-kilodalton TNF receptor linked to Fc portion of IgG1 (Enbrel), twice a week subcutaneously (n=11) • 7. Sham treated group (n=6)
Clinical assessment was based on body weight loss, stool consistency and presence of blood per rectum. The animals were sacrificed on day 95 and colon removed for assessment of weight and myeloperoxidase activity.

PBMC cells = experiment: PBMC cell viability, Alamar Blue, 24 hours (Example 8); type: cell-based, human; conditions: 1, 10 and 40 μg/ml, 0.6 and 20.0 pg/ml LPS
Procedure: FIG. 39. Cell viability of PBMC cells following exposure for 24 hours to Alamar Blue and HD5, hBD-1, hBD-2, hBD-3 and hBD-4 at concentrations of 1, 10 and 40 μg/ml.
PBMC cell viability following exposure for 24 hours to Alamar Blue and HD5,hBD-1, hBD-2, hBD-3 and hBD-4 at concentrations of 1, 10 and 40 μg/ml at 0.6 and 20.0 pg/ml LPS respectively (FIG. 39).

[1] = tested on: bacteria localization at the surface of the intestinal mucosa; experiment: Localization of bacteria by FISH with mucin immunostaining, lysis zone (Example 14); type: in vivo; conditions: orally administered; compared with mice on a low fat or western diet
Procedure: Immunostaining of mucins and localization of bacteria by FISH Mucus immunostaining was paired with fluorescent in situ hybridization (FISH), as previously described in order to analyze bacteria localization at the surface of the intestinal mucosa. Briefly, colonic tissues (proximal colon, 2nd cm from the cecum) without fecal material were placed in methanol-Carnoy's fixative solution (60% methanol, 30% chloroform, 10% glacial acetic acid) for a minimum of 3 hours at room temperature. Tissues were then washed in methanol 2×30 min, ethanol 2×15 min, ethanol/xylene (1:1), 15 min and xylene 2×15 min, followed by embedding in Paraffin with a vertical orientation. Five μm sections were performed and dewax by preheating at 60° C. for 10 min, followed by xylene 60° C. for 10 min, xylene for 10 min and 99.5% ethanol for 10 minutes. Hybridization step was performed at 50° C. overnight with EUB338 probe (5′-GCTGCCTCCCGTAGGAGT-3′, with a 5′ labeling using Alexa 647) diluted to a final concentration of 10 μg/mL in hybridization buffer (20 mM Tris-HCl, pH 7.4, 0.9 M NaCl, 0.1% SDS, 20% formamide). After washing 10 min in wash buffer (20 mM Tris-HCl, pH 7.4, 0.9 M NaCl) and 3×10 min in PBS, PAP pen (Sigma-Aldrich) was used to mark around the section and block solution (5% fetal bovine serum in PBS) was added for 30 min at 4° C. […]

BALB/c mice = experiment: Murine model of acute graft versus host disease, oral HD5 (Example 13); type: in vivo
Procedure: Treatment regime: 22 female BALB/c mice were irradiated with 4.5 Gy (2×498 sec) at intervals of at least 4 hours on day 0. Bone marrow was harvested: hind limbs harvested from 2 female WT C57BL/6 mice aseptically. Skeletal muscle was removed and epiphysis cut away. Lumen of bone flushed with PBS and cells pelleted and taken up. Harvest of T-cells: spleens from 2 female WT C57BL/6 mice were meshed through a […] cell strainer into a PBS filled dish. Cells were taken up in PBS and transferred into a 50 mL falcon tube and spun down. Cells were taken up in 1 mL PBS and 20 μL of CD4 microbead +20 μL CD8 microbeads per spleen added for incubation for 20 min at 4 degrees C. Cells were washed with PBS and applied to MACS separation in order to positively select CD4+ and CD8+ cells. Positively selected T-cells were counted and taken up. Transplantation: directly after the second irradiation, all WT BALB/c recipient mice were injected with 5×1.000.000 BM cells (50 μL) i.v. into the retroorbital venous plexus under isoflurane anesthesia. 22 BALB/c mice were treated with 1.2 mg of HD5/kg BW/day; 1.2 mg of hBD-2/kg BW/day or 100 μL of PBS per day vial oral gavage from day 0-10.
Survival was monitored for 60 days.

[2] = tested on: microbiota of the intestine; experiment: Therapeutic high fat diet model in diet-induced obese mice, 16S microbial analyses (Example 2); type: in vivo
From the text: (§1) The overall design of the study is shown in FIG. 1, lower panel, “Therapeutic study”. Mice and diets. The experiment elucidates the effect of hBD-2 and HD5 on the microbiota in diet-induced obese mice. A run-in period of 13 weeks where mice were fed a very HFD (60% energy from fat) preceded the intervention. Only mice meeting the criteria of a minimum of 12 gram weight gain (approximately 50% of initial bodyweight) during the run-in period were included in the final analyses. […] They were exposed to all experimental tests, but excluded from the analyses.
(§2) Treatment regimen. Before the intervention all mice were MR scanned. Cages of mice were allocated to experimental groups based on their fat mass. All subsequent measures were paired with data from the same mouse before the intervention. A LFD (low fat diet) reference group was running in parallel. As controls for the intervention 2 additional groups were included: a) very HFD and b) LFD. Experimental mice stayed on the very HFD during the intervention. The mice were on the experimental diet for 10 weeks. They were co-housed throughout the experiment, 4 mice per cage, 3 cages per group. All tests ran over 3 days, 1 cage per group per day.
(§3) Microbial analyses were carried out to study the microbiota of the intestine. Longitudinal 16S characterization was conducted on 4 paired samples from 60 mice, 240 samples in total. Each mouse was sampled prior to diet change, 1 week post diet change, 4 weeks post diet change and at termination, thus ensuring a thorough characterization of the faecal microbiota as a result of defensin treatment.

[3] = Therapeutic high fat diet model in diet-induced obese mice, weight and fat percentage (Example 2); type: in vivo
From the text: as §1, §2

[4] = tested on: microbiota of the intestine; experiment: Prophylactic high fat diet murine model, 16S microbial analyses (Example 1); type: in vivo, mice
From the text: The overall experimental design is shown in FIG. 1, top panel “Prophylactic study”. Mice: Mice were housed in trios, 4 cages per group. Feed intake was registered daily just before lights were turned off at 6 pm. Individual mice were subjected to experimental procedures in altered order both group and cage wise. Mice were kept at room temperature under a 12-hour light/dark cycle at SPF standard conditions. Diets: For dosing, the average weight was estimated to be 25 grams per mouse. Mice eat approximately 3 grams of feed per mouse per day.
Treatment regime: Mice were fed either a high fat diet (HFD) or a low fat (LF) control diet. The HFD contained 4 subgroups; a) hBD-2, b) HD5, c) hBD-2/HD5 and d) standard HFD without supplementation of defensins. Defensin concentration was 1,2 mg hBD-2 per kg mouse per day. HD5 was given in equimolar concentration to hBD-2.
as §3

neonatal rat model = conditions: cited from earlier work
[5] = tested on: gut epithelial cell lines; conditions: cited from earlier work
[6] = same three dosing regimens, sacrifice day 95

Enbrel [reference compound]
Clinical score (body weight loss, stool consistency, blood per rectum) (SCID mice; hBD-2 1 mg/kg s.c. OD, Dexamethasone 0.3 mg/kg i.p. OD, Enbrel 100 μg/mouse s.c. twice weekly, from day 7): statistically significant and similar effect on clinical score
Colon weight (SCID mice; [6]): statistically significant and similar effect on colon weight
Myeloperoxidase activity in intestinal tissue (SCID mice; [6]): statistically significant and similar effect

human beta defensin 1 (DHYNCVSSGGQCLYSACPIFTKIQGTCYRGKAKCCK; ends and bridges not checked; cysteine pairing not given here; listed as Homo sapiens) [hBD-1]
Toxicity (PBMC cell viability) (PBMC cells): not toxic irrespectively of concentration; also recorded: not to be toxic

human intestinal alpha defensin 5 (ATCYCRTGRCATRESLSGVCEISGRLYRLCCR; listed as Homo sapiens) [HD5]
Distance from the intestinal lining to bacterial population (lysis zone) [1]: profound effect on the distance
Animals that had died by day 60 (BALB/c mice; 1.2 mg/kg BW/day oral gavage day 0-10, HD5 group of 8, PBS six out of eight died): 2
Mortality (BALB/c mice; 22 mice, oral treatment for 10 days): significant reduction of mortality
Abundance of Alloprevotella ([2]; colon, therapeutic intervention, HD5 p<0.02): increased the abundance of Alloprevotella statistically significantly
Relative abundance of Bifidobacteriaceae ([2]; small intestine, hBD-2 p<0.0001): trend towards HD5 increasing the abundance of Bifidobacteriaceae
Fat percentage ([3]; 4 weeks after dietary change, HFD plus HD5 vs HFD control, p=0.009): significantly lower fat percentage
Fat percentage, course ([3]; HFD plus HD5 group after dietary intervention): tendency of decreasing fat percentage
Weight gain ([3]; after dietary intervention, HFD plus HD5 vs HFD control, p<0.05): gained significantly less weight than the HFD control
Toxicity (PBMC cell viability) (PBMC cells): not toxic irrespectively of concentration; also recorded: not to be toxic
Microbial presence and abundance (unifrac, genus analysis) ([4]; prophylactic oral defensin in HFD, 1,2 mg hBD-2 per kg per day, HD5 equimolar, mix 50%+50%): affected primarily the microbial abundance
Abundance of Allobaculum ([4]; small intestine, prophylaxis, p<0.02): statistically significant increase of abundance of Allobaculum

human beta defensin 4 (ELDRICGYGTARCRKKCRSQEYRIGRCPNTYACCLRK; ends and bridges not checked; cysteine pairing not given here; listed as Homo sapiens) [hBD-4]
Toxicity (PBMC cell viability) (PBMC cells): moderately increasing toxicity; also recorded: moderately toxic

human beta defensin 3 (GIINTLQKYYCRVRGGRCAVLSCLPKEEQIGKCSTRGRKCCRRK; ends and bridges not checked; cysteine pairing not given here; listed as Homo sapiens) [hBD-3]
Incidence of NEC (neonatal rat model): decrease the incidence of NEC
Toxicity [5]: not to be toxic
Toxicity (PBMC cell viability) (PBMC cells): profoundly increasing toxicity; also recorded: toxic
